1 compound from patent US20220202835A1, “INJECTABLE CLORSULON COMPOSITIONS, METHODS AND USES THEREOF” (Boehringer Ingelheim Animal Health USA Inc., priority 2019, published 2022) can be followed below.

Data set [1] deals with Fasciola hepatica. The experiment in a line: Study 2: efficacy against four week old Fasciola hepatica in cattle.
A short description of data set [2]: Study 2: clorsulon plasma pharmacokinetics in cattle (LC-MS). Format: in vivo. Particulars: for Maximum plasma concentrations: cattle. Here is the method:
Whole blood samples for analysis of plasma for analysis of clorsulon were collected from the jugular vein. Samples were collected in ˜7.5 mL lithium heparinized tubes for plasma preparation once prior to treatment on Day-2±1. Thereafter, blood samples were collected according to the Schedule of Operations (Table 3). The time of blood sampling was recorded, and care was taken to avoid cross-contamination of samples during sample collection, storage, and processing. Plasma was recovered from each sample, aliquoted (two aliquots) and stored frozen (at or below −20° C.) until required for assays. The cryo-tubes were labeled with Study Number, type of sample, date, Study Day/time of sampling, and animal ID.
One aliquot with plasma was used for analysis for clorsulon concentrations using currently High Performance Liquid Chromatography-Mass Spectrometry (LC-MS) methodology.
Plasma samples were assayed for clorsulon.
If quantifiable plasma concentrations were determined for an animal, pharmacokinetic analysis was performed as described below. Clorsulon plasma concentrations were determined for an animal at each sampling time, when appropriate. […] The mean concentration-time profiles will be obtained by averaging the concentrations at each sampling time point for all treated animals.
The therapeutic efficacy and pharmacokinetic parameters of clorsulon were evaluated when administered subcutaneously as 30% (w/v) clorsulon formulation to cattle experimentally infected with liver flukes (Fasciola hepatica). This study differs from Study Number 1 in that there is no administration of 10% (w/v) clorsulon and only immature (four week old) F. hepatica flukes were used.

In data set [3] the test system is Fasciola hepatica. The experiment in a line: Study 1: efficacy against induced Fasciola hepatica infection in cattle (fluke counts at necropsy). The following applies: subcutaneously to cattle at 6 and 8 mg/kg bodyweight as a 30% w/v solution.

In the case of `Nc1cc(C(Cl)=C(Cl)Cl)c(S(N)(=O)=O)cc1S(N)(=O)=O` [clorsulon, 4-amino-6-(1,2,2-trichloroethenyl)benzene-1,3-disulfonamide], the “Eff (%) against Fasciola hepatica” value in data set [1] (Group 2: 30% w/v solution, 8 mg/kg subcutaneously once on Day 0 (4 week old flukes)) was 99.6%; in data set [1] (Group 3: 30% w/v solution, 6 mg/kg subcutaneously once on Day 0 (4 week old flukes)), 99.9%; in data set [1] (Group 4: 30% w/v solution, 4 mg/kg subcutaneously once on Day 0 (4 week old flukes)), 92.9%. In addition, the Maximum plasma concentrations was 5740 ± 1160 ng/mL in data set [2] (Group 2: 30% w/v solution, 8 mg clorsulon/kg SC); 4430 ± 988 ng/mL in data set [2] (Group 3: 30% w/v solution, 6 mg clorsulon/kg SC); 3140 ± 530 ng/mL in data set [2] (Group 4: 30% w/v solution, 4 mg clorsulon/kg SC). In addition, in data set [2] (Groups 2-4 (4, 6, 8 mg/kg SC), 12 out of 18 animals), the “time at which maximum plasma concentrations were reached” value was at most 12 h. Further, in data set [3], the “efficacy against early immature (four and six week old) F. hepatica” value is reported as 98-100%.
